Organism: Mus musculus
Experiment: Percent inhibition of nitric oxide production induced by IFN-uM concentration
Assay type: functional
Set-up: concentration or dose not given beside the values

SMILES | Inhibition [%]
CC1(C)CC[C@@]23CC[C@]4(C)[C@@](OC2=O)(C3C1)[C@@H](Br)C[C@@H]1[C@@]2(C)CCC(=O)C(C)(C)[C@@H]2CC[C@]14C (stereo partly drawn) | 4
C=C(C)[C@@H]1CC[C@]2(C)[C@H](CC=C3C4CC(C)(C)CC[C@]4(C(=O)O)CC[C@]32C)[C@@]1(C)CCC=O (stereo partly drawn) | 22
CC1(C)CCC2(CO)CC[C@]3(C)[C@@](O)(C2C1)[C@@H](O)C[C@@H]1[C@@]2(C)CC[C@H](O)C(C)(C)[C@@H]2CC[C@]13C (stereo partly drawn) | 22
CC1(C)CC[C@]2(C(=O)O)CC[C@]3(C)C(=CC[C@@H]4[C@@]5(C)C=CC(=O)C(C)(C)[C@@H]5CC[C@]43C)C2C1 (stereo partly drawn) | 85
C[C@@H]1CC[C@]2(C(=O)O)CC[C@]3(C)C(=CC[C@@H]4[C@@]5(C)C[C@@H](Cl)C(=O)C(C)(C)[C@@H]5CC[C@]43C)C2[C@H]1C (stereo partly drawn) | 55
CC1(C)CCC2(C(=O)O)CC[C@]3(C)C(=CC[C@@H]4[C@@]5(C)CC[C@@H](O)C(C)(C)[C@@H]5CC[C@]43C)C2C1 (stereo partly drawn) | 18
CC(=O)O[C@H]1CC[C@]2(C)[C@H]3CC=C4C5[C@@H](C)[C@H](C)CCC5(C(=O)O)CC[C@@]4(C)[C@]3(C)CC[C@H]2C1(C)C (stereo partly drawn) | 0
COC(=O)C12CCC(C)(C)CC1C1=CC[C@@H]3[C@@]4(C)CCC(=O)C(C)(C)[C@@H]4CC[C@@]3(C)[C@]1(C)CC2 (stereo partly drawn) | 24
C[C@@H]1CCC2(C(=O)O)CC[C@]3(C)C(=CC[C@@H]4[C@@]5(C)CCC(=O)C(C)(C)[C@@H]5CC[C@]43C)C2[C@H]1C (stereo partly drawn) | 22
CC(=O)OCC12CCC(C)(C)CC1C1=CC[C@@H]3[C@@]4(C)CC[C@H](OC(C)=O)C(C)(C)[C@@H]4CC[C@@]3(C)[C@]1(C)CC2 (stereo partly drawn) | 4
C=C(C)[C@@H]1CC[C@]2(C)[C@H](CC=C3C4CC(C)(C)CC[C@]4(C(=O)O)CC[C@]32C)[C@@]1(C)CCC#N (stereo partly drawn) | 33
CC1(C)CCC2(C(=O)O)CC[C@]3(C)C(=CC[C@@H]4[C@@]5(C)CC[C@@H](Cl)C(C)(C)[C@@H]5CC[C@]43C)C2C1 (stereo partly drawn) | 0
COC(=O)C12CCC(C)(C)CC1[C@H]1[C@H](O)C[C@@H]3[C@@]4(C)CC[C@H](OC(C)=O)C(C)(C)[C@@H]4CC[C@@]3(C)[C@]1(C)CC2 (stereo partly drawn) | 0
COC(=O)C12CCC(C)(C)CC1C1=CC[C@@H]3[C@@]4(C)CC=CC(C)(C)[C@@H]4CC[C@@]3(C)[C@]1(C)CC2 (stereo partly drawn) | 3
COC(=O)C12CCC(C)(C)CC1C1=CC[C@@H]3[C@@]4(C)CC[C@@H](Cl)C(C)(C)[C@@H]4CC[C@@]3(C)[C@]1(C)CC2 (stereo partly drawn) | 2
CC(=O)OCC12CC[C@@H](C)[C@H](C)C1C1=CC[C@@H]3[C@@]4(C)CC[C@H](OC(C)=O)C(C)(C)[C@@H]4CC[C@@]3(C)[C@]1(C)CC2 (stereo partly drawn) | 0
CC(=O)OCC12CCC(C)(C)CC1[C@H]1[C@@H](O)C[C@@H]3[C@@]4(C)CC[C@H](OC(C)=O)C(C)(C)[C@@H]4CC[C@@]3(C)[C@]1(C)CC2 (stereo partly drawn) | 0
C[C@@H]1CCC2(C=O)CC[C@]3(C)C(=CC[C@@H]4[C@@]5(C)CCC(=O)C(C)(C)[C@@H]5CC[C@]43C)C2[C@H]1C (stereo partly drawn) | 21
CC1(C)CCC2(C(=O)O)CC[C@]3(C)C(=CC[C@@H]4[C@@]5(C)CCC(=O)NC(C)(C)[C@@H]5CC[C@]43C)C2C1 (stereo partly drawn) | 51
C=C(C)[C@@H]1CC[C@]2(C)[C@H](CC=C3C4CC(C)(C)CC[C@]4(C(=O)OC)CC[C@]32C)[C@@]1(C)CCC#N (stereo partly drawn) | 21
COC(=O)C12CCC(C)(C)CC1[C@H]1C(=O)C[C@@H]3[C@@]4(C)CCC(=O)C(C)(C)[C@@H]4CC[C@@]3(C)[C@]1(C)CC2 (stereo partly drawn) | 3
CC1(C)CCC2(C(=O)O)CC[C@]3(C)[C@H](C(=O)C[C@@H]4[C@@]5(C)CCC(=O)C(C)(C)[C@@H]5CC[C@]43C)C2C1 (stereo partly drawn) | 37
CC1(C)CCC2(CO)CC[C@]3(C)[C@@H](C2C1)[C@H](O)C[C@@H]1[C@@]2(C)CC[C@H](O)C(C)(C)[C@@H]2CC[C@]13C (stereo partly drawn) | 20
